Test results published in patent US10633353B2, “Polymerizable compound, composition, polymer, optically anisotropic body, liquid crystal display element, and organic EL display” (DIC Corporation, priority 2014, dated 2020).

Experiment: Preservation stability of the coating liquid
Type: physicochemical
Experimental: The preservation stability of the coating liquid was evaluated on a scale of A to E on the basis of the state of the coating liquid that was stored for 2 months under a condition where the coating liquid was shielded from light at 0° C.
A: No visual change in the appearance of the coating liquid was confirmed. A GPC analysis of the coating liquid confirmed that the change in the composition of the coating liquid was 1% or less.
B: No visual change in the appearance of the coating liquid was confirmed. A GPC analysis of the coating liquid confirmed that the change in the composition of the coating liquid was 2% or less.
C: A visual change in the appearance of the coating liquid was confirmed; a trace amount of insoluble components were confirmed, or a GPC analysis of the coating liquid confirmed that the change in the composition of the coating liquid was 3% or less.
D: A visual change in the appearance of the coating liquid was confirmed; insoluble components were confirmed. The ratio of the weight of the insoluble components to the total solid content was 5% or less.
E: A large amount of insoluble components were visually confirmed. The ratio of the weight of the insoluble components to the total solid content was 5% or more.

[1] = coating liquid stored for 2 months shielded from light at 0° C., appearance and GPC

SMILES | Preservation stability [1] | Preservation stability (summary in words)
C=CC(=O)OCCCCCCOC(=O)/C=C/c1ccc(CCC(=O)Oc2ccc(OC(=O)CCc3ccc(/C=C/C(=O)OCCCCCCOC(=O)C=C)cc3)c(/C=N/Nc3nc4ccccc4s3)c2)cc1 [1-cj-60] | A (No visual change in the appearance of the coating liquid was confirmed. A GPC analysis of the coating liquid confirmed that the change in the composition of the coating liquid was 1% or less.) | 
C=CC(=O)OCCCCCCOc1ccc(C(=O)Oc2ccc(-c3ccc(OC(=O)c4ccc(OCCCCCCOC(=O)C=C)cc4)cc3/C=N/Nc3nc4ccccc4s3)cc2)cc1 [1-hk-85] | A (No visual change in the appearance of the coating liquid was confirmed. A GPC analysis of the coating liquid confirmed that the change in the composition of the coating liquid was 1% or less.) | high
C=CC(=O)OCCCOc1ccc(C#Cc2ccc(C#Cc3ccc(OCCCOC(=O)C=C)cc3)c(/C=N/Nc3nc4ccccc4s3)c2)cc1 [1-c-67] | B (No visual change in the appearance of the coating liquid was confirmed. A GPC analysis of the coating liquid confirmed that the change in the composition of the coating liquid was 2% or less.) | 
C=CC(=O)OCCCCCOc1ccc(C(=O)OCCc2ccc(CCOC(=O)c3ccc(OCCCCCOC(=O)C=C)cc3)c(/C=N/Nc3nc4ccccc4s3)c2)cc1 [1-c-11] | A (No visual change in the appearance of the coating liquid was confirmed. A GPC analysis of the coating liquid confirmed that the change in the composition of the coating liquid was 1% or less.) | 
C=CC(=O)OCCCCCCOc1ccc(C(=O)Oc2ccc(C(=O)Oc3ccc(OCCCCCCOC(=O)C=C)cc3/C=N/Nc3nc4ccccc4s3)cc2)cc1 [1-eh-72] | A (No visual change in the appearance of the coating liquid was confirmed. A GPC analysis of the coating liquid confirmed that the change in the composition of the coating liquid was 1% or less.) | 
C=CC(=O)OCCCOc1ccc(OC(=O)C2CCC(COc3ccc(OCC4CCC(C(=O)Oc5ccc(OCCCOC(=O)C=C)cc5)CC4)c(/C=N/N(C(=O)C=C)c4nc5ccccc5s4)c3)CC2)cc1 (stereo not drawn) [1-cmn-107] | A (No visual change in the appearance of the coating liquid was confirmed. A GPC analysis of the coating liquid confirmed that the change in the composition of the coating liquid was 1% or less.) | 
C=CC(=O)OCCCOc1ccc(C(=O)OCCc2ccc(CCOC(=O)c3ccc(OCCCOC(=O)C=C)cc3)c(/C=N/Nc3nc4ccccc4s3)c2)cc1 [1-c-9] | A (No visual change in the appearance of the coating liquid was confirmed. A GPC analysis of the coating liquid confirmed that the change in the composition of the coating liquid was 1% or less.) | 
C=CC(=O)OCCCCCCOc1ccc(/C=C/C(=O)Oc2ccc(OC(=O)/C=C/c3ccc(OCCCCCCOC(=O)C=C)cc3)c(/C=N/Nc3nc4ccccc4s3)c2)cc1 [1-c-43] | B (No visual change in the appearance of the coating liquid was confirmed. A GPC analysis of the coating liquid confirmed that the change in the composition of the coating liquid was 2% or less.) | 
C=CC(=O)OCCCCOc1ccc(C(=O)OCCc2ccc(OC(=O)c3ccc(OCCCCOC(=O)C=C)cc3)c(/C=N/Nc3nc4ccccc4s3)c2)cc1 [1-c-3] | A (No visual change in the appearance of the coating liquid was confirmed. A GPC analysis of the coating liquid confirmed that the change in the composition of the coating liquid was 1% or less.) | 
C=CC(=O)OCCCOc1ccc(OC(=O)C2CCC(COc3ccc(OCC4CCC(C(=O)Oc5ccc(OCCCOC(=O)C=C)cc5)CC4)c(/C=N/Nc4nc5ccccc5s4)c3)CC2)cc1 (stereo not drawn) [1-cm-89] | A (No visual change in the appearance of the coating liquid was confirmed. A GPC analysis of the coating liquid confirmed that the change in the composition of the coating liquid was 1% or less.) | 
C=CC(=O)OCCCCCCOc1ccc(C(=O)Oc2ccc3cc(OCCCCCCOC(=O)C=C)ccc3c2/C=N/Nc2nc3ccccc3s2)cc1 [1-e-73] | A (No visual change in the appearance of the coating liquid was confirmed. A GPC analysis of the coating liquid confirmed that the change in the composition of the coating liquid was 1% or less.) | 
C=CC(=O)OCCCOC(=O)/C=C/c1ccc(C(=O)Oc2ccc(OC(=O)c3ccc(/C=C/C(=O)OCCCOC(=O)C=C)cc3OC)c(/C=N/Nc3nc4ccccc4s3)c2)c(OC)c1 [1-j-57] | B (No visual change in the appearance of the coating liquid was confirmed. A GPC analysis of the coating liquid confirmed that the change in the composition of the coating liquid was 2% or less.) | 
C=C(C)C(=O)OCCCCOc1ccc(C(=O)OCCc2ccc(OC(=O)c3ccc(OCCCCOC(=O)C(=C)C)cc3)c(/C=N/Nc3nc4ccccc4s3)c2)cc1 [1-c-6] | A (No visual change in the appearance of the coating liquid was confirmed. A GPC analysis of the coating liquid confirmed that the change in the composition of the coating liquid was 1% or less.) | 
C=CC(=O)OCCCCOC(=O)C1CCC(C(=O)OC2CCC(C(=O)Oc3ccc(OC(=O)C4CCC(OC(=O)C5CCC(C(=O)OCCCCOC(=O)C=C)CC5)CC4)c(/C=N/Nc4nc5ccccc5s4)c3)CC2)CC1 (stereo not drawn) [1-f-20] | A (No visual change in the appearance of the coating liquid was confirmed. A GPC analysis of the coating liquid confirmed that the change in the composition of the coating liquid was 1% or less.) | 
C=CC(=O)Oc1ccc(C(=O)Oc2ccc(OC(=O)c3ccc(OC(=O)C=C)cc3)c(/C=N/Nc3nc4ccccc4s3)c2)cc1 [1-g-35] | B (No visual change in the appearance of the coating liquid was confirmed. A GPC analysis of the coating liquid confirmed that the change in the composition of the coating liquid was 2% or less.) | 
C=CC(=O)OCCCOc1ccc(/C=C/C(=O)Oc2ccc(OC(=O)/C=C/c3ccc(OCCCOC(=O)C=C)c(Cl)c3)c(/C=N/Nc3nc4ccccc4s3)c2)cc1Cl [1-c-47] | B (No visual change in the appearance of the coating liquid was confirmed. A GPC analysis of the coating liquid confirmed that the change in the composition of the coating liquid was 2% or less.) | 
C=CC(=O)OCCCCOc1ccc(C(=O)OCCc2ccc(CCOC(=O)c3ccc(OCCCCOC(=O)C=C)cc3)c(/C=N/Nc3nc4ccccc4s3)c2)cc1 [1-c-10] | A (No visual change in the appearance of the coating liquid was confirmed. A GPC analysis of the coating liquid confirmed that the change in the composition of the coating liquid was 1% or less.) | 
C=CC(=O)OCCCCCCOc1ccc(C(=O)OCCc2ccc(CCOC(=O)c3ccc(OCCCCCCOC(=O)C=C)cc3)c(/C=N/Nc3nc4ccccc4s3)c2)cc1 [1-c-12] | A (No visual change in the appearance of the coating liquid was confirmed. A GPC analysis of the coating liquid confirmed that the change in the composition of the coating liquid was 1% or less.) | 
C=CC(=O)OCCCCCCOc1ccc(C(=O)OCCc2ccc(OC(=O)c3ccc(OCCCCCCOC(=O)C=C)cc3)c(/C=N/Nc3nc(-c4ccc5ccccc5c4)cs3)c2)cc1 [1-c-34] | B (No visual change in the appearance of the coating liquid was confirmed. A GPC analysis of the coating liquid confirmed that the change in the composition of the coating liquid was 2% or less.) | 
C=C(C)C(=O)OCCCCCCOc1ccc(C(=O)OCCc2ccc(OC(=O)c3ccc(OCCCCCCOC(=O)C(=C)C)cc3)c(/C=N/Nc3nc4ccccc4s3)c2)cc1 [1-c-8] | A (No visual change in the appearance of the coating liquid was confirmed. A GPC analysis of the coating liquid confirmed that the change in the composition of the coating liquid was 1% or less.) | 
C=CC(=O)OCCCCOC(=O)C1CCC(OC(=O)C2CCC(C(=O)Oc3ccc(OC(=O)C4CCC(C(=O)OC5CCC(C(=O)OCCCCOC(=O)C=C)CC5)CC4)c(/C=N/Nc4nc5ccccc5s4)c3)CC2)CC1 (stereo not drawn) [1-f-95] | A (No visual change in the appearance of the coating liquid was confirmed. A GPC analysis of the coating liquid confirmed that the change in the composition of the coating liquid was 1% or less.) | 
C=CC(=O)OCCCCCCOc1ccc(OCCOc2ccc(OCCOc3ccc(OCCCCCCOC(=O)C=C)cc3)c(/C=N/Nc3nc4ccccc4s3)c2)cc1 [1-c-80] | A (No visual change in the appearance of the coating liquid was confirmed. A GPC analysis of the coating liquid confirmed that the change in the composition of the coating liquid was 1% or less.) | 
C=C(C)C(=O)OCCCOc1ccc(C(=O)OCCc2ccc(OC(=O)c3ccc(OCCCOC(=O)C(=C)C)cc3)c(/C=N/Nc3nc4ccccc4s3)c2)cc1 [1-c-5] | A (No visual change in the appearance of the coating liquid was confirmed. A GPC analysis of the coating liquid confirmed that the change in the composition of the coating liquid was 1% or less.) | 
C=CC(=O)OCCCCOC(=O)C1CCC(C(=O)OC2CCC(C(=O)Oc3ccc(OC(=O)C4CCC(OC(=O)C5CCC(C(=O)OCCCCOC(=O)C=C)CC5)CC4)c(/C=N/N(CC)c4nc5ccccc5s4)c3)CC2)CC1 (stereo not drawn) [1-f-102] | A (No visual change in the appearance of the coating liquid was confirmed. A GPC analysis of the coating liquid confirmed that the change in the composition of the coating liquid was 1% or less.) | 
C=C(C)C(=O)OCCCOc1ccc(/C=C/C(=O)Oc2ccc(OC(=O)/C=C/c3ccc(OCCCOC(=O)C(=C)C)cc3)c(/C=N/Nc3nc4ccccc4s3)c2)cc1 [1-c-48] | B (No visual change in the appearance of the coating liquid was confirmed. A GPC analysis of the coating liquid confirmed that the change in the composition of the coating liquid was 2% or less.) | 
C=CC(=O)OCCCOc1ccc(/C=C/C(=O)Oc2ccc(OC(=O)/C=C/c3ccc(OCCCOC(=O)C=C)c(OC)c3)c(/C=N/Nc3nc4ccccc4s3)c2)cc1OC [1-c-46] | B (No visual change in the appearance of the coating liquid was confirmed. A GPC analysis of the coating liquid confirmed that the change in the composition of the coating liquid was 2% or less.) | 
